From PubChem BioAssay AID330 (DTP/NCI, 2004)
“And” between values parts separate entries of the source, which are not always exact repeats. Equal values may be shown once. Toxic doses and inconclusive results are not listed.

Tested on: P388 leukemia ip, CD2F1 mice, survival T/C
Assay: NCI In Vivo Anticancer Drug Screen. Data for tumor model P388 Leukemia (intraperitoneal) in CD2F1 (CDF1) mice
Settings: endpoint: median survival time, higher = longer survival
Method in brief: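 Mice carrying the transplanted tumor received test compound or vehicle. Survival was recorded in each group, and the value is the treated-group measurement divided by that of the vehicle-treated control group.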

[1] = dose: 25.0 mg/kg/injection, schedule: Q04DX002 (ip), vehicle: saline with Tween-80
[2] = dose: 50.0 mg/kg/injection, schedule: Q04DX002 (ip), vehicle: saline with Tween-80
[3] = dose: 60.0 mg/kg/injection, schedule: Q01DX005 (ip), vehicle: saline with Tween-80
[4] = dose: 120.0 mg/kg/injection, schedule: Q01DX005 (ip), vehicle: saline with Tween-80
[5] = dose: 240.0 mg/kg/injection, schedule: Q01DX005 (ip), vehicle: saline with Tween-80
[6] = dose: 50.0 mg/kg/injection, schedule: Q01DX005 (ip), vehicle: Klucel (hydroxypropylcellulose) (HPC)
[7] = dose: 100.0 mg/kg/injection, schedule: Q01DX005 (ip), vehicle: Klucel (hydroxypropylcellulose) (HPC)
[8] = dose: 60.0 mg/kg/injection, schedule: Q01DX005 (ip), vehicle: saline
[9] = dose: 120.0 mg/kg/injection, schedule: Q01DX005 (ip), vehicle: saline
[10] = dose: 240.0 mg/kg/injection, schedule: Q01DX005 (ip), vehicle: saline
[11] = dose: 50.0 mg/kg/injection, schedule: Q01DX009 (ip), vehicle: Klucel (hydroxypropylcellulose) (HPC)
[12] = dose: 100.0 mg/kg/injection, schedule: Q01DX009 (ip), vehicle: Klucel (hydroxypropylcellulose) (HPC)
[13] = dose: 200.0 mg/kg/injection, schedule: Q01DX009 (ip), vehicle: Klucel (hydroxypropylcellulose) (HPC)
[14] = dose: 50.0 mg/kg/injection, schedule: Q01DX009 (ip), vehicle: saline with Tween-80
[15] = dose: 100.0 mg/kg/injection, schedule: Q01DX009 (ip), vehicle: saline with Tween-80
[16] = dose: 5.0 mg/kg/injection, schedule: Q01DX009 (ip), vehicle: saline with Tween-80
[17] = dose: 10.0 mg/kg/injection, schedule: Q01DX009 (ip), vehicle: saline with Tween-80

SMILES: Cc1ccc([NH-])c([NH-])c1.[Cl][Pt+2][Cl]
- T/C (dose: 1.56 mg/kg/injection, schedule: Q04DX002 (ip), vehicle: saline with Tween-80): 105 % of control and 108 % of control
- T/C (dose: 3.12 mg/kg/injection, schedule: Q04DX002 (ip), vehicle: saline with Tween-80): 110 % of control
- T/C [1]: 150 % of control
- T/C [2]: 159 % of control

SMILES: CC1(C)N[P+]2(Nc3ccccc3O2)OC1=O (stereo unspecified)
- T/C (dose: 100.0 mg/kg/injection, schedule: Q04DX002 (ip), vehicle: Klucel (hydroxypropylcellulose) (HPC)): 97 % of control
- T/C (dose: 200.0 mg/kg/injection, schedule: Q04DX002 (ip), vehicle: Klucel (hydroxypropylcellulose) (HPC)): 93 % of control
- T/C (dose: 400.0 mg/kg/injection, schedule: Q04DX002 (ip), vehicle: Klucel (hydroxypropylcellulose) (HPC)): 87 % of control

SMILES: CN(CC(N)=O)C(=O)c1cnc2ccccc2c1
- T/C [3]: 98 % of control
- T/C [4]: 101 % of control
- T/C [5]: 99 % of control

SMILES: O=C(/C=C/c1ccccc1)/C=C/c1ccccc1 (tested in a mixture with another compound)
- T/C [3]: 98 % of control
- T/C [4]: 91 % of control
- T/C [5]: 91 % of control

SMILES: O=C(Nc1ccc(CCC2=NCCCN2)cc1)c1ccc(C(=O)Nc2ccc(CCC3=NCCCN3)cc2)cc1
- T/C (dose: 25.0 mg/kg/injection, schedule: Q01DX005 (ip), vehicle: saline with Tween-80): 115 % of control
- T/C (dose: 50.0 mg/kg/injection, schedule: Q01DX005 (ip), vehicle: saline with Tween-80): 113 % of control

SMILES: O=C(N/C(=C\c1cccc([N+](=O)[O-])c1)c1nc2ccccc2s1)c1ccccc1
- T/C [3]: 107 % of control
- T/C [4]: 106 % of control
- T/C [5]: 110 % of control

SMILES: O=C(OC(=O)c1cccc(-c2ccccc2)c1)c1cccc(-c2ccccc2)c1
- T/C (dose: 100.0 mg/kg/injection, schedule: Q04DX003 (ip), vehicle: Klucel (hydroxypropylcellulose) (HPC)): 104 % of control
- T/C (dose: 200.0 mg/kg/injection, schedule: Q04DX003 (ip), vehicle: Klucel (hydroxypropylcellulose) (HPC)): 90 % of control
- T/C (dose: 400.0 mg/kg/injection, schedule: Q04DX003 (ip), vehicle: Klucel (hydroxypropylcellulose) (HPC)): 90 % of control

SMILES: CCOC(=O)/C(C#N)=C/NCCc1c[nH]c2ccccc12
- T/C [6]: 102 % of control
- T/C [7]: 103 % of control
- T/C (dose: 200.0 mg/kg/injection, schedule: Q01DX005 (ip), vehicle: Klucel (hydroxypropylcellulose) (HPC)): 94 % of control

SMILES: C[N+](C)(CCS(=O)(=O)[O-])C1CCCCC1
- T/C (dose: 50.0 mg/kg/injection, schedule: Q01DX009 (ip), vehicle: saline): 98 % of control
- T/C (dose: 100.0 mg/kg/injection, schedule: Q01DX009 (ip), vehicle: saline): 90 % of control
- T/C (dose: 200.0 mg/kg/injection, schedule: Q01DX009 (ip), vehicle: saline): 91 % of control

SMILES: CC(=O)OCC1CN2CC1(c1ccccc1)C(=O)NC2=O (stereo unspecified)
- T/C (dose: 100.0 mg/kg/injection, schedule: Q01DX001 (ip), vehicle: saline): 102 % of control
- T/C (dose: 200.0 mg/kg/injection, schedule: Q01DX001 (ip), vehicle: saline): 102 % of control
- T/C (dose: 400.0 mg/kg/injection, schedule: Q01DX001 (ip), vehicle: saline): 100 % of control

SMILES: CC(=O)NCN(C)[N+](=O)[O-]
- T/C [8]: 115 % of control
- T/C [9]: 97 % of control
- T/C [10]: 108 % of control

SMILES: Cc1cc(=O)n2[nH]c(-c3ccc(Cl)cc3)nc2n1
- T/C [11]: 106 % of control
- T/C [12]: 103 % of control
- T/C [13]: 100 % of control

SMILES: COc1ccccc1/C=C1/C(=O)ON=C1C
- T/C [3]: 100 % of control
- T/C [4]: 98 % of control
- T/C [5]: 108 % of control

SMILES: CCOC(=O)C1C(C(=O)c2ccccc2)C12C(=O)N(C)c1ccccc12 (stereo unspecified)
- T/C (dose: 12.5 mg/kg/injection, schedule: Q04DX002 (ip), vehicle: saline with Tween-80): 103 % of control
- T/C [1]: 107 % of control
- T/C [2]: 103 % of control

SMILES: Clc1ccc(S/N=C/c2ccccc2)cc1
- T/C [14]: 113 % of control
- T/C [15]: 114 % of control

SMILES: COC(=O)c1[nH]cnc1O
- T/C (dose: 50.0 mg/kg/injection, schedule: Q01DX005 (ip), vehicle: water): 103 % of control
- T/C (dose: 100.0 mg/kg/injection, schedule: Q01DX005 (ip), vehicle: water): 113 % of control
- T/C (dose: 200.0 mg/kg/injection, schedule: Q01DX005 (ip), vehicle: water): 103 % of control

SMILES: COC(=O)Nc1cn2nc(N)sc2n1
- T/C (dose: 100.0 mg/kg/injection, schedule: Q01DX001 (ip), vehicle: saline with Tween-80): 102 % of control
- T/C (dose: 200.0 mg/kg/injection, schedule: Q01DX001 (ip), vehicle: saline with Tween-80): 101 % of control
- T/C (dose: 400.0 mg/kg/injection, schedule: Q01DX001 (ip), vehicle: saline with Tween-80): 99 % of control

SMILES: CC[C@@H]1O[C@H]2O[C@@H](/C=C/C=C/C=C/c3oc(=O)cc(OC)c3C)[C@@H](O)[C@@]2(C)[C@]1(C)O
- T/C (dose: 0.5 mg/kg/injection, schedule: Q01DX009 (ip), vehicle: Klucel (hydroxypropylcellulose) (HPC)): 107 % of control
- T/C (dose: 1.0 mg/kg/injection, schedule: Q01DX009 (ip), vehicle: Klucel (hydroxypropylcellulose) (HPC)): 106 % of control
- T/C (dose: 2.0 mg/kg/injection, schedule: Q01DX009 (ip), vehicle: Klucel (hydroxypropylcellulose) (HPC)): 98 % of control

SMILES: C=C1C(=O)OC2/C=C(/C)C3(O)OC(C)(CC(OC(=O)C(C)C)C12)CC3OC(C)=O (stereo unspecified)
- T/C (dose: 25.0 mg/kg/injection, schedule: Q01DX009 (ip), vehicle: Klucel (hydroxypropylcellulose) (HPC)): 110 % of control
- T/C [11]: 116 % of control

SMILES: CCCCN(C(C)=O)c1nc2ccccc2n1C
- T/C (dose: 100.0 mg/kg/injection, schedule: Q04DX003 (ip), vehicle: saline): 97 % of control
- T/C (dose: 200.0 mg/kg/injection, schedule: Q04DX003 (ip), vehicle: saline): 98 % of control
- T/C (dose: 400.0 mg/kg/injection, schedule: Q04DX003 (ip), vehicle: saline): 95 % of control

SMILES: Cc1ccc(-c2cc(=O)c3cccc(CC(=O)O)c3o2)cc1
- T/C (dose: 25.0 mg/kg/injection, schedule: Q01DX005 (ip), vehicle: Klucel (hydroxypropylcellulose) (HPC)): 112 % of control and 89 % of control
- T/C [6]: 104 % of control and 118 % of control
- T/C [7]: 119 % of control and 90 % of control

SMILES: CCOC(=O)C(Cl)(SC(Cl)(S(=O)(=O)c1ccccc1)S(=O)(=O)c1ccccc1)C(=O)OCC
- T/C [11]: 102 % of control
- T/C [12]: 99 % of control
- T/C [13]: 97 % of control

SMILES: N/C(CC(=O)Nc1ccc(F)cc1)=N\O
- T/C [3]: 108 % of control
- T/C [4]: 102 % of control
- T/C [5]: 100 % of control

SMILES: ON=C(C(Cl)(Cl)Cl)C(Cl)(Cl)Cl
- T/C [3]: 100 % of control
- T/C [4]: 100 % of control
- T/C [5]: 97 % of control

SMILES: COc1ccc(C(=O)C2C(C(=O)c3ccccc3)C23C(=O)N(C)c2ccccc23)cc1 (stereo unspecified)
- T/C [1]: 101 % of control
- T/C [2]: 100 % of control
- T/C (dose: 100.0 mg/kg/injection, schedule: Q04DX002 (ip), vehicle: saline with Tween-80): 98 % of control

SMILES: COC1=C(N=[N+]=[N-])C(=O)C(OC)=C(N=[N+]=[N-])C1=O
- T/C [16]: 90 % of control
- T/C [17]: 90 % of control
- T/C (dose: 20.0 mg/kg/injection, schedule: Q01DX009 (ip), vehicle: saline with Tween-80): 100 % of control

SMILES: O=C1C=CC(=Nc2ccccc2)O1
- T/C (dose: 2.5 mg/kg/injection, schedule: Q01DX009 (ip), vehicle: saline with Tween-80): 100 % of control
- T/C [16]: 100 % of control
- T/C [17]: 95 % of control

SMILES: CCN(CC)C(=O)N1C=CC(c2ccccc2)C(C(C)=O)=C1 (stereo unspecified)
- T/C [3]: 91 % of control
- T/C [4]: 103 % of control
- T/C [5]: 101 % of control

SMILES: C[N+](C)(C)N=P(O)(N[N+](C)(C)C)Oc1ccccc1 (stereo unspecified)
- T/C [8]: 95 % of control
- T/C [9]: 100 % of control
- T/C [10]: 95 % of control

SMILES: O=C(Nc1cccc(C(F)(F)F)c1)C(Cl)=C(Cl)Cl
- T/C (dose: 60.0 mg/kg/injection, schedule: Q01DX005 (ip), vehicle: Klucel (hydroxypropylcellulose) (HPC)): 103 % of control
- T/C (dose: 120.0 mg/kg/injection, schedule: Q01DX005 (ip), vehicle: Klucel (hydroxypropylcellulose) (HPC)): 111 % of control
- T/C (dose: 240.0 mg/kg/injection, schedule: Q01DX005 (ip), vehicle: Klucel (hydroxypropylcellulose) (HPC)): 95 % of control

SMILES: CCOC(=O)c1ccc(NC(CCC(C#N)(C#N)CCC(=NC(C)(C)C)Nc2ccc(C(=O)OCC)cc2)=NC(C)(C)C)cc1
- T/C [14]: 95 % of control
- T/C [15]: 95 % of control
- T/C (dose: 200.0 mg/kg/injection, schedule: Q01DX009 (ip), vehicle: saline with Tween-80): 96 % of control
